Results: ChEMBL document CHEMBL2010742, “Phaeosphaerins A-F, cytotoxic perylenequinones from an endolichenic fungus, Phaeosphaeria sp” (J Nat Prod, 2012)
Calls of active or inactive are those of the source. The rule behind the calls is not given here.

Tests used:
PC-3 = test: Cytotoxicity against human PC3 cells after 24 hrs by MTT assay; format: functional, cell-based; conditions: PC-3, 24 h
DU-145 = test: Cytotoxicity against human DU145 cells after 24 hrs by MTT assay; format: functional, cell-based; conditions: DU-145, 24 h
LNCaP = test: Cytotoxicity against human LNCAP cells after 24 hrs by MTT assay; format: functional, cell-based
[1] = Drug uptake in human MCF7 cell lysosomes at 20 uM after 10 mins by […] staining-based confocal microscopic analysis; format: ADME, Lysosome; conditions: mcf7, 10 min
K562 [2] = test: Cytotoxicity against human K562 cells after 24 hrs by MTT assay; format: functional, cell-based; conditions: K562, 24 h
K562 [3] = test: Cytotoxicity against human K562 cells treated for 4 hrs followed irradiated with […] light for 1000 seconds by MTT assay; format: functional, cell-based; conditions: K562, light or radiation study
K562 [4] = test: Induction of ROS production in human K562 cells at 10 uM after 3 hrs by DCF fluorescence analysis; format: functional, cell-based

Compound	IC50 (PC-3)	IC50 (DU-145)	IC50 (LNCaP)	Drug uptake [1]	IC50 (K562 [2])	IC50 (K562 [3])	Activity (K562 [4])
COC1=C2c3c4c5c(c(O)cc(OC)c5c5c(OC)cc(O)c(c35)C1=O)C(=O)[C@@H](OC)[C@@]41C[C@H](C)O[C@@]21C(C)=O [PHAEOSPHAERIN B]	2.42 µM	9.54 µM	2.67 µM	–	–	–	–
COC1=C2c3c4c5c(c(O)cc(OC)c5c5c(OC)cc(O)c(c35)C1=O)C(=O)[C@@H](OC)[C@@]41C[C@H](C)O[C@]2(C(C)=O)O1 [PHAEOSPHAERIN F]	5.45 µM	16.7 µM	11.8 µM	–	–	–	–
COc1c2c3c4c(c(OC)c(=O)c5c(O)cc(OC)c(c6c(OC)cc(O)c(c1=O)c63)c54)[C@@H](C(C)=O)[C@@](C)(O)C2 [HYPOCRELLIN A]	–	–	–	Active	7.47 µM	0.55 µM	Active
COC1=C2c3c4c5c(c(O)cc(OC)c5c5c(OC)cc(O)c(c35)C1=O)C(=O)[C@H](OC)[C@]41C[C@H](C)O[C@@]2(C(C)=O)O1 [PHAEOSPHAERIN E]	5.25 µM	16.2 µM	10.1 µM	–	–	–	–
COC1=C2c3c4c5c(c(O)cc(OC)c5c5c(OC)cc(O)c(c35)C1=O)C(=O)[C@@]1(OC)O[C@@H](C)C[C@@]41[C@H]2C(C)=O [PHAEOSPHAERIN A]	5.84 µM	10.8 µM	10.8 µM	–	–	–	–
COC1=C2c3c4c5c(c(O)cc(OC)c5c5c(OC)cc(O)c(c35)C1=O)C(=O)[C@@H](OC)[C@]4(CC(C)O)[C@@H]2C(C)=O (some centres undefined) [PHAEOSPHAERIN C]	6.11 µM	15.2 µM	14.3 µM	Active	19.5 µM	7.08 µM	Active
COc1cccc2c1C(=O)c1c(O)c3c(c(O)c1C2=O)C[C@@](O)(C(=O)CO)C[C@@H]3O[C@H]1C[C@H](N)[C@H](O)[C@H](C)O1 [DOXORUBICIN]	19.5 µM	23.5 µM	16 µM	–	–	–	–
COC1=C2c3c4c5c(c(O)cc(OC)c5c5c(OC)cc(O)c(c35)C1=O)C(=O)[C@@H](OC)[C@@]41C[C@H](C)O[C@]2(O)[C@]1(C)O [PHAEOSPHAERIN D]	9.74 µM	20.2 µM	24.9 µM	–	–	–	–
